Here are results for five molecules from ChEMBL document CHEMBL5620375, “Tetrahydrobenzo[h]quinoline derivatives as a novel chemotype for dual antileishmanial-antimalarial activity graced with antitubercular activity: Design, synthesis and biological evaluation” (Eur J Med Chem, 2023).

≈ marks a conversion by molar mass, not a printed value.

In the test the test system is Mycobacterium tuberculosis. The test can be described thus: Antitubercular activity against multidrug-resistant Mycobacterium tuberculosis ATCC 35822 assessed as inhibition of bacterial growth by microplate alamar blue assay. Type of test: functional. (The colour change of resazurin is a common sign of viable cells or microbes.)
Consider `COc1ccc(OC)c(-c2c3c([nH]c(=O)c2C#N)-c2ccccc2CC3)c1`, for which the MIC worked out at 21.8 µM (≈ 7.82 µg/mL).
Then `N#Cc1c(-c2ccc(Cl)cc2Cl)c2c([nH]c1=O)-c1ccccc1CC2`, with 85.4 µM (≈ 31.4 µg/mL); and `COc1ccc(-c2c3c([nH]c(=O)c2C#N)-c2ccccc2CC3)cc1O`, with 45.4 µM (≈ 15.6 µg/mL).
As to `COc1ccccc1-c1c2c([nH]c(=O)c1C#N)-c1ccccc1CC2`, the MIC was determined as 11.9 µM (≈ 3.9 µg/mL).
With `N#Cc1c(O)nc2c(c1-c1cccc([N+](=O)[O-])c1)CCc1ccccc1-2` the figure was 22.8 µM (≈ 7.82 µg/mL).

Broadly, the MIC is the lowest concentration that inhibits growth of the organism.
